Data on four compounds can be found in patent EP2832223A1, “HERBICIDAL COMPOSITION” (Ishihara Sangyo Kaisha, Ltd., priority 2012, dated 2013).

In general, inhibition refers to the share of the control response that was lost under treatment.

Common to all, as to type: in vivo
Assay [1] concerns green foxtail (Setaria viridis (L.) P.Beauv.). As to the kind of experiment: Test Example 3: pot test, soil treatment, visual growth inhibition. To be noted: soil, read-out: Growth inhibition rate (%) of green foxtail Measured value. How it is done:
Upland field soil was put into a 1/1,000,000 ha pot, and seeds of green foxtail (Setaria viridis (L.) P.Beauv.) were sown. On the next day, predetermined amounts of ONEHOPE NYUZAI (tradename), Click (tradename) and SC formulation containing sulcotrione as an active ingredient (tradename: Mikado, manufactured by Bayer CropScience) were diluted with water (in an amount corresponding to 1,000 L/ha) and applied for soil treatment by a small sprayer.
On the 27th day after treatment, the state of growth of the green foxtail was visually observed to determine the growth inhibition rate (%). The growth inhibition rate (%) (measured value) and the growth inhibition rate (%) calculated in the same manner as in the above Test Example 1 are shown in Table 3.

In assay [2] the test system is korean lespedeza (Kummerowia stipulacea (Maxim.) Makino). As to the kind of experiment: Test Example 6: pot test, soil treatment, visual growth inhibition. The conditions noted are these: soil, read-out: Growth inhibition rate (%) of korean lespedeza Measured value. How it is done:
Upland field soil was put into a 1/300,000 ha pot, and seeds of korean lespedeza (Kummerowia stipulacea (Maxim.) Makino) were sown. On the next day, predetermined amounts of ONEHOPE NYUZAI (tradename), Click (tradename), Mikado (tradename) and a wettable powder containing bicyclopyrone prepared in accordance with a conventional formulation method were diluted with water (in an amount corresponding to 1,000 L/ha) and applied for soil treatment by a small sprayer.
On the 14th day after treatment, the state of growth of the korean lespedeza was visually observed to determine the growth inhibition rate (%). The growth inhibition rate (%) (measured value) and the growth inhibition rate (%) calculated in the same manner as in the above Test Example 1 are shown in Table 6.

The test system of assay [3] is sunn-hemp (Crotalaria juncea L.). As to the kind of experiment: Test Example 7: pot test, soil treatment, visual growth inhibition. To be noted: soil, read-out: Growth inhibition rate (%) of sunn-hemp Measured value. How it is done:
Upland field soil was put into a 1/300,000 ha pot, and seeds of sunn-hemp (Crotalaria juncea L.) were sown. On the next day, predetermined amounts of ONEHOPE NYUZAI (tradename), Click (tradename), Mikado (tradename) and a wettable powder containing bicyclopyrone prepared in accordance with a conventional formulation method were diluted with water (in an amount corresponding to 1,000 L/ha) and applied for soil treatment by a small sprayer.
On the 28th day after treatment, the state of growth of the sunn-hemp was visually observed to determine the growth inhibition rate (%). The growth inhibition rate (%) (measured value) and the growth inhibition rate (%) calculated in the same manner as in the above Test Example 1 are shown in Table 7.

Assay [4] has as its system Japanese millet (Echinochloa utilis Ohwi et Yabuno). Description: Test Example 9: pot test, soil treatment, visual growth inhibition. To be noted: soil, read-out: Growth inhibition rate (%) of Japanese millet Measured value. Here is the method:
Upland field soil was put into a 1/300,000 ha pot, and seeds of Japanese millet (Echinochloa utilis Ohwi et Yabuno) were sown. On the next day, predetermined amounts of ONEHOPE NYUZAI (tradename), Click (tradename), Mikado (tradename) and a wettable powder containing bicyclopyrone prepared in accordance with a conventional formulation method were diluted with water (in an amount corresponding to 1,000 L/ha) and applied for soil treatment by a small sprayer.
On the 28th day after treatment, the state of growth of the Japanese millet was visually observed to determine the growth inhibition rate (%). The growth inhibition rate (%) (measured value) and the growth inhibition rate (%) calculated in the same manner as in the above Test Example 1 are shown in Table 9.

The test system of assay [5] is annual ragweed (Ambrosia artemisiifolia L.). Description: Test Example 11: pot test, soil treatment, visual growth inhibition. To be noted: soil, read-out: Growth inhibition rate (%) of annual ragweed Measured value. Here is the method: Upland field soil was put into a 1/300,000 ha pot, and seeds of annual ragweed (Ambrosia artemisiifolia L.) were sown. On the next day, predetermined amounts of ONEHOPE NYUZAI (tradename), Click (tradename), Mikado (tradename) and a wettable powder containing bicyclopyrone prepared in accordance with a conventional formulation method were diluted with water (in an amount corresponding to 1,000 L/ha) and applied for soil treatment by a small sprayer.
On the 28th day after treatment, the state of growth of the annual ragweed was visually observed to determine the growth inhibition rate (%). The growth inhibition rate (%) (measured value) and the growth inhibition rate (%) calculated in the same manner as in the above Test Example 1 are shown in Table 11.

The subject of assay [6] is velvetleaf (Abutilon theophrasti Medic.). Description: Test Example 14: pot test, soil and foliar treatment, visual growth inhibition. The conditions noted are these: read-out: Growth inhibition rate (%) of velvetleaf Measured value. From the text:
(§1) Upland field soil was put into a 1/1,000,000 ha pot, and seeds of velvetleaf (Abutilon theophrasti Medic.) were sown. When the velvetleaf reached 4.0 to 4.3-leaf stage, seeds of velvetleaf were further sown in the same pot assuming conditions such that weeds would later grow. On the next day, predetermined amounts of ONEHOPE NYUZAI (tradename), Click (tradename), Callisto (tradename), Mikado (tradename), a wettable powder containing bicyclopyrone as an active ingredient and Clio (tradename) were diluted with water in an amount corresponding to 300 L/ha and applied for soil treatment and for foliar treatment by a small sprayer.
On the 31 st day after treatment, the state of growth of the velvetleaf was visually observed to determine the growth inhibition rate (%). The growth inhibition rate (%) (measured value) and the growth inhibition rate (%) calculated in the same manner as in the above Test Example 1 are shown in Table 14.

The test system is the same in assay [7]. As to the kind of experiment: Test Example 16: pot test, soil and foliar treatment, visual growth inhibition. The conditions noted are these: read-out: Growth inhibition rate (%) of velvetleaf Measured value.
From the text: as §1, with “Three days later,” for “On the next day,”
On the 29th day after treatment, the state of growth of the velvetleaf was visually observed to determine the growth inhibition rate (%). The growth inhibition rate (%) (measured value) and the growth inhibition rate (%) calculated in the same manner as in the above Test Example 1 are shown in Table 16.

In assay [8] the test system is Japanese millet (Echinochloa utilis Ohwi et Yabuno). As to the kind of experiment: Test Example 5: pot test, soil treatment, visual growth inhibition. The conditions noted are these: soil, read-out: Growth inhibition rate (%) of Japanese millet Measured value. How it is done: Upland field soil was put into a 1/300,000 ha pot, and seeds of Japanese millet (Echinochloa utilis Ohwi et Yabuno) were sown. On the next day, predetermined amounts of ONEHOPE NYUZAI (tradename), Click (tradename) and SC formulation containing topramezone as an active ingredient (tradename: Clio, manufactured by BASF) were diluted with water (in an amount corresponding to 1,000 L/ha) and applied for soil treatment by a small sprayer.
On the 28th day after treatment, the state of growth of the Japanese millet was visually observed to determine the growth inhibition rate (%). The growth inhibition rate (%) (measured value) and the growth inhibition rate (%) calculated in the same manner as in the above Test Example 1 are shown in Table 5.

For assay [9], the system named is rostrate sesbania (Sesbania rostrata Bremek. & Oberm.). Description: Test Example 8: pot test, soil treatment, visual growth inhibition. The conditions noted are these: soil, read-out: Growth inhibition rate (%) of rostrate sesbania Measured value. How it is done:
Upland field soil was put into a 1/300,000 ha pot, and seeds of rostrate sesbania (Sesbania rostrata Bremek. & Oberm.) were sown. On the next day, predetermined amounts of ONEHOPE NYUZAI (tradename), Click (tradename), Spectrum (tradename) and Clio (tradename) were diluted with water (in an amount corresponding to 1,000 L/ha) and applied for soil treatment by a small sprayer.
On the 28th day after treatment, the state of growth of the rostrate sesbania was visually observed to determine the growth inhibition rate (%). The growth inhibition rate (%) (measured value) and the growth inhibition rate (%) calculated in the same manner as in the above Test Example 1 are shown in Table 8.

For assay [10], the system named is prickly sida (Sida spinosa L.). Description: Test Example 10: pot test, soil treatment, visual growth inhibition. To be noted: read-out: Growth inhibition rate (%) of prickly sida Measured value. How it is done: Upland field soil was put into a 1/300,000 ha pot, and seeds of prickly sida (Sida spinosa L.) were sown. On the next day, predetermined amounts of ONEHOPE NYUZAI (tradename), Click (tradename), Spectrum (tradename), Callisto (tradename) and Clio (tradename) were diluted with water (in an amount corresponding to 1,000 L/ha) and applied for soil treatment by a small sprayer.
On the 28th day after treatment, the state of growth of the prickly sida was visually observed to determine the growth inhibition rate (%). The growth inhibition rate (%) (measured value) and the growth inhibition rate (%) calculated in the same manner as in the above Test Example 1 are shown in Table 10.

Assay [11] deals with common cocklebur (Xanthium strumarium L.). As to the kind of experiment: Test Example 12: pot test, foliar treatment, visual growth inhibition. The conditions noted are these: 250 g/ha, foliar treatment at 4.2 to 4.3-leaf stage, 28th day after treatment, read-out: Growth inhibition rate (%) of common cocklebur Measured value. Here is the method:
Upland field soil was put into a 1/1,000,000 ha pot, and seeds of common cocklebur (Xanthium strumarium L.) were sown. When the common cocklebur reached 4.2 to 4.3-leaf stage, predetermined amounts of ONEHOPE NYUZAI (tradename), Click (tradename) and water dispersible granules containing flufenacet as an active ingredient (tradename: Cadou, manufactured by Bayer CropScience) were diluted with water (in an amount corresponding to 1,000 L/ha) and applied for foliar treatment by a small sprayer.
On the 28th day after treatment, the state of growth of the common cocklebur was visually observed to determine the growth inhibition rate (%). The growth inhibition rate (%) (measured value) and the growth inhibition rate (%) calculated in the same manner as in the above Test Example 1 are shown in Table 12.

Assay [12] has as its system guinea grass (Panicum maximum Jacq.). As to the kind of experiment: Test Example 15: pot test, soil and foliar treatment, visual growth inhibition. The conditions noted are these: Megathyrsus maximus, 250 g/ha, 31st day after treatment, read-out: Growth inhibition rate (%) of guinea grass Measured value. Here is the method: Upland field soil was put into a 1/1,000,000 ha pot, and seeds of guinea grass (Panicum maximum Jacq.) were sown. When the guinea grass reached 5.2 to 6.0-leaf stage, seeds of guinea grass were further sown in the same pot assuming conditions such that weeds would later grow. On the next day, predetermined amounts of ONEHOPE NYUZAI (tradename), Click (tradename), Spectrum (tradename) and Cadou (tradename) were diluted with water in an amount corresponding to 300 L/ha and applied for soil treatment and for foliar treatment by a small sprayer.
On the 31 st day after treatment, the state of growth of the guinea grass was visually observed to determine the growth inhibition rate (%). The growth inhibition rate (%) (measured value) and the growth inhibition rate (%) calculated in the same manner as in the above Test Example 1 are shown in Table 15.

The test system of assay [13] is wild oat (Avena fatua L.). Description: Test Example 2: pot test, soil treatment, visual growth inhibition. To be noted: 50 g/ha, 28th day after treatment, read-out: Growth inhibition rate (%) of wild oat Measured value. Here is the method:
Upland field soil was put into a 1/500,000 ha pot, and seeds of wild oat (Avena fatua L.) were sown. On the next day, predetermined amounts of ONEHOPE NYUZAI (tradename), Click (tradename) and SC formulation containing mesotrione as an active ingredient (tradename: Callisto, manufactured by Syngenta) were diluted with water (in an amount corresponding to 1,000 L/ha) and applied for soil treatment by a small sprayer.
On the 28th day after treatment, the state of growth of the wild oat was visually observed to determine the growth inhibition rate (%). The growth inhibition rate (%) (measured value) and the growth inhibition rate (%) calculated in the same manner as in the above Test Example 1 are shown in Table 2.

`CS(=O)(=O)c1ccc(C(=O)C2C(=O)CCCC2=O)c(Cl)c1` [Sulcotrione, 2-(2-chloro-4-mesylbenzoyl)cyclohexane-1,3-dione]: the inhibition at 300 g/ha in [1] worked out at 5%; in [6], 90%. Further, in assay [2], the inhibition at 1000 g/ha came out at 15%. Also, the inhibition at 50 g/ha turned out to be 10% in assay [3] and 20% in assay [4]. Moreover, the inhibition at 2000 g/ha in [5] amounted to 85%. Also, the inhibition at 100 g/ha in [6] is 88%. In [7], the inhibition at 200 g/ha stood at 88%.

On to `Cc1c(C(=O)c2cnn(C)c2O)ccc(S(C)(=O)=O)c1C1=NOCC1` [Topramezone, [3-(4,5-dihydro-1,2-oxazol-3-yl)-4-mesyl-o-tolyl](5-hydroxy-1-methylpyrazol-4-yl)methanone], for which, in assay [8], the inhibition at 40 g/ha amounted to 30%. Moreover, in assay [9], the inhibition at 100 g/ha stood at 80%. Besides, the inhibition at 10 g/ha in assay [10] (soil) worked out at 0%. In assay [6], the inhibition at 10 g/ha was found to be 8% and the inhibition at 60 g/ha was 65%. Moreover, in [7], the inhibition at 20 g/ha came out at 50%.

As to `CC(C)N(C(=O)COc1nnc(C(F)(F)F)s1)c1ccc(F)cc1` [Flufenacet, 4'-fluoro-N-isopropyl-2-[5-(trifluoromethyl)-1,3,4-thidiazol-2-yloxy]acetanilide], the inhibition at 250 g/ha was 0% in assay [11] and 50% in assay [12].

For the compound `CS(=O)(=O)c1ccc(C(=O)C2C(=O)CCCC2=O)c([N+](=O)[O-])c1` [Mesotrione, 2-(4-mesyl-2-nitrobenzoyl)cyclohexane-1,3-dione], the inhibition at 50 g/ha in assay [13] came to 0%; in assay [6] (50 g/ha, soil treatment and foliar treatment, 31st day after treatment), 91%. For the same compound, in [10] (25 g/ha, soil treatment, 28th day after treatment), the inhibition at 25 g/ha was found to be 25%. Moreover, the inhibition at 120 g/ha in assay [6] (120 g/ha, soil treatment and foliar treatment, 31st day after treatment) came out at 93%. Besides, the inhibition at 75 g/ha in assay [7] (75 g/ha, soil treatment and foliar treatment, 29th day after treatment) was determined as 89%.
